Experimental data from patent US20070189970A1, “Contrast medium for thrombus formation” (Astellas Pharma Inc., priority 2004, published 2007).
Structures can show the parent of a compound that is named as a salt.

Columns and labels:
active GPIIb/IIIa = target: T1, active GPIIb/IIIa (Homo sapiens, UniProt P05106+P08514); assay: Test 1: inhibitory activity of adenosine diphosphate (ADP)-induced platelet aggregation in platelet rich plasma; assay type: cell-based; details: for R/A ratio: IC50 (R) of Test 2 / IC50 (A) of Test 1, selective binding ability toward the active GPIIb/IIIa; for IC50: human PRP 3×10^8 platelets/ml, 37° C., read-out: A Inhibition of platelet aggregation IC50
T1 construct: Platelet rich plasma (PRP) containing 3×10^8 platelets/ml was prepared from human blood; endogenous in cells
T1 sequence (P08514 32-887 limits assumed): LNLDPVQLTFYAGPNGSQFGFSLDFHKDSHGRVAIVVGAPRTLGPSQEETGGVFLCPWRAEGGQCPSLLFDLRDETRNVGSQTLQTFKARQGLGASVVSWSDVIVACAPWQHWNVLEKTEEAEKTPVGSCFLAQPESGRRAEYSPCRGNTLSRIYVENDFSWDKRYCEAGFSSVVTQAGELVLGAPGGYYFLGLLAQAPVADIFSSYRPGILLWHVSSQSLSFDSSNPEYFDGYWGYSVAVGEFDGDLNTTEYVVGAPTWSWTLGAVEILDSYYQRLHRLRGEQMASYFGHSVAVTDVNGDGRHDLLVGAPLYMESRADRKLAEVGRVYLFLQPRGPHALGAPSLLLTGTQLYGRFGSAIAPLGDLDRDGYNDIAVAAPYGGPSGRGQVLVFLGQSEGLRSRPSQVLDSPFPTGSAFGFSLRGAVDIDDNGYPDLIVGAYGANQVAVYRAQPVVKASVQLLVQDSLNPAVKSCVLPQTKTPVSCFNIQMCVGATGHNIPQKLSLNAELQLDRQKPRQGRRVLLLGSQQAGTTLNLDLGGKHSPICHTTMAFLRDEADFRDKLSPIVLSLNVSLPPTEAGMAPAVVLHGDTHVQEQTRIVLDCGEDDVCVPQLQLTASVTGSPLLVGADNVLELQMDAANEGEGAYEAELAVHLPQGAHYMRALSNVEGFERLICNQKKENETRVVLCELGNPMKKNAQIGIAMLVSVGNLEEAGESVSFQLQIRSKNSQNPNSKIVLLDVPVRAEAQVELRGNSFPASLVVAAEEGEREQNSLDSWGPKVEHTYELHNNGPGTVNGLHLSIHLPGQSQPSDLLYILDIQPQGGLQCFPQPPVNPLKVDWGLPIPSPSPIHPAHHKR
T1 sequence (P08514 891-1039 partner limits assumed): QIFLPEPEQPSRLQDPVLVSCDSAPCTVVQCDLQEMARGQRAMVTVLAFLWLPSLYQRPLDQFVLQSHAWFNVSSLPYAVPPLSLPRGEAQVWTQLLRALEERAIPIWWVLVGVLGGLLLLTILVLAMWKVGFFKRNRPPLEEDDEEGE
T1 sequence (P05106 27-788): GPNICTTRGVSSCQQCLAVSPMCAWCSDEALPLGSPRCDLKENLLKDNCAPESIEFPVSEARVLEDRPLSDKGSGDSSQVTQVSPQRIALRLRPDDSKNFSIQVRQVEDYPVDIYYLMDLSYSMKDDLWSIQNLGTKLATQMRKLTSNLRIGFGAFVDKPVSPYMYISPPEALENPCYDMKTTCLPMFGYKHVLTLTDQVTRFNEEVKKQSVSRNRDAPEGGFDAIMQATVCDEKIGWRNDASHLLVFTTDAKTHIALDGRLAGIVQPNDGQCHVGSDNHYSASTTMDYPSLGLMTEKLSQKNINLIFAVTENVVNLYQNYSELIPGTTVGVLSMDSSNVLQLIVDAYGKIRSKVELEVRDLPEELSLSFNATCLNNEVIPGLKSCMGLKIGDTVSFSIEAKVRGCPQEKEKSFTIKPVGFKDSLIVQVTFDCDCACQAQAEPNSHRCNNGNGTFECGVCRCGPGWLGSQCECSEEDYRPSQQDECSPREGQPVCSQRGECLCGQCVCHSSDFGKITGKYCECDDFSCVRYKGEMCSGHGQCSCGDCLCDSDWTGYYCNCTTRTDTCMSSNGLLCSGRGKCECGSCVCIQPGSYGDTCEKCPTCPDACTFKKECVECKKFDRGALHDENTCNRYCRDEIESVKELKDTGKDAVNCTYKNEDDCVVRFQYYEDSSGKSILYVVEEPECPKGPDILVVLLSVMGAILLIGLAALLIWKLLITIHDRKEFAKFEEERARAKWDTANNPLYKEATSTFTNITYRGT
Method: Test 1: Measurement of Inhibitory Activity of Adenosine Diphosphate (ADP)-induced Platelet Aggregation
Platelet rich plasma (PRP) containing 3×10^8 platelets/ml was prepared from human blood. To 225 μl of PRP, 25 μl of a solution of the test compound was added and stirred at 37° C. for 2 min. To the solution, 5 μl of ADP (final concentration: 2.5 μM) was added as an aggregation inducing agent. Aggregation was measured with aggregometer (NBS HEMA-TRACER 801). The procedure was as follows. Light transmittance of PRP was calibrated to 100%. PRP was incubated in the aggregometer at 37° C. for 2 min. ADP was added […], and the change in light transmittance was monitored by PL500 recorder (Yokogawa, Japan). Percent inhibition of aggregation by the test compound was calculated by comparison with the aggregation in the absence of the test compound. The activity of an […] (test compound) is represented as a value of IC50, i.e., a dose required for the […] inhibition of the platelet aggregation.

resting GPIIb/IIIa = target: T2, resting GPIIb/IIIa (Homo sapiens, UniProt P05106+P08514); assay: Test 2: suppression activity of fibrinogen adhesion of prostaglandin E1 (PGE1)-treated platelet; assay type: cell-based; details: for IC50: washed PGE1 (1 μM)-treated platelets, plates coated with human fibrinogen 1 μg/well, 37° C. 30 min, read-out: R Suppression of fibrinogen adhesion IC50
T2 construct: Platelet rich plasma (PRP) was prepared by centrifugation of whole blood; endogenous in cells; host or cells: washed platelets from venous blood, kept resting with 1 μM PGE1
T2 sequence (P08514 32-887 limits assumed): as the sequence (P08514 32-887 limits assumed) above
T2 sequence (P08514 891-1039 partner limits assumed): as the sequence (P08514 891-1039 partner limits assumed) above
T2 sequence (P05106 27-788): as the sequence (P05106 27-788) above
Method: Test 2: Measurement of Suppression Activity of Fibrinogen Adhesion of Prostaglandin E1 (PGE 1)-treated Platelet
Venous blood was collected onto sodium citrate. Platelet rich plasma (PRP) was prepared by centrifugation of whole blood. Platelets were washed with modified HEPES-Tyrode's buffer (129 mM NaCl, 2.8 mM KCl, 0.8 mM KH2PO4, 8.9 mM NaHCO3, 0.8 mM MgCl2, 10 mM HEPES, 5.5 mM Glucose, 0.1% BSA,.pH 7.4) containing 1μM PGE1. After washing, platelets were suspended in modified HEPES-Tyrode's buffer containing 1.0 mM CaCl2 and 1 μM PGE1 and the number of platelet was adjusted.
Adhesion assay was carried out as follows. 96-well microtiter plates were coated with 1 μg/well of human fibrinogen. The plates were then blocked with 1% BSA. After washing the plates with the buffer, the washed platelets were added to each well in the presence of the test compound or buffer and incubated at 37° C. for 30 min. The plates were then washed three times with buffer. The number of adhered cells was determined by measuring the acid phosphatase activity of cells using a microplate reader at 410 nm. Percent inhibition of adhesion in the sample treated with the test compound was calculated by comparison with the adhesion in absence of the test compound. The activity of the test compound was represented by a value of IC50, i.e. a dose required for the […] inhibition of the platelet adhesion.

monkey thrombus model = assay: Accumulation of radioactivity at thrombus, blood and muscle in monkey thrombus model (PET, gamma counter); assay type: in vivo, monkey (Macaca fasciculans); details: 90 min after the administration
Text: Kinetics of the labeled compounds in the body of monkey (Macaca fasciculans) was studied by using the contrast mediums labeled with [^11C] and [^18F] prepared in Production Examples 21 and 22, respectively.
According to the canine saphenous vein (which is formed with a confluence of dorsal digital veins of hallux and arcuate veins of foot, and ascends in front of a medial malleolus and behind of a medial condyle of femur, crosses a saphenous opening of patellar retinaculum and pour into a femoral vein over a femoral triangle) thrombosis model (Knight L. C. et al., Thromb Haemost., 1998, 80, p.845-851 and Lister-James L. et al., J. Nucl Med. 1996, 37, p.775-781), a platinum embolization coil (Boston Scientific Japan) was inserted and placed in the right femoral vein of the monkey while anesthetized and wound was sutured.
Three hours after the insertion of the coil, the contrast mediums prepared in Production Examples 21 and 22, respectively, were administered intravenously (740 MBq/2 ml-saline). Imaging was performed for 90 min with a high-resolution positron emission tomography (PET) scanner (SHR-7700, Hamamatsu Photonics K.K., Japan). After PET measurement, the coil was removed, and the right femoral vein was collected to obtain a thrombus sample. Thigh muscle was collected, and saphenous artery was punctured to collect an arterial blood sample. The thrombus, thigh muscle and arterial blood samples were weighed and their radioactivity was measured with gamma counter (1480 WIZARD, Wallac Oy, Finland).
Data was calculated as percent of injected dose ([…]).

[1] = listed as Production Example 21

Row | Compound | R/A ratio (active GPIIb/IIIa) | IC50 (active GPIIb/IIIa; ADP final concentration 2.5 μM) [nM] | IC50 (resting GPIIb/IIIa) [nM] | other results
1 | CN(CC(=O)c1ccc(OCC(=O)O)c(OCC(=O)O)c1)C(=O)/C=C/C1CCNCC1 [Ex. 1, 2,2′-{[4-([methyl[(2E)-3-(4-piperidinyl)-2-propenoyl]amino}acetyl)-1,2-phenylene]bis(oxy)]diacetic acid hydrochloride] | 59 | 135 | 7900 | –
2 | CC(NCOc1ccc(C(=N)N)cc1)C(=O)N[C@@H](CC(=O)O)C(=O)N[C@@H](C(=O)N1CCS(=O)(=O)CC1)C(C)C (stereo partly drawn) [Ex. 3] | 18 | 73 | 1350 | –
3 | N=C(N)c1ccc(OCC(=O)Nc2ccc(OCC(=O)O)c(C(=O)O)c2)cc1 [Ex. 4] | 6.3 | 260 | 1630 | –
4 | CC(=O)N[C@@H](CNC(=O)[C@@H]1CCCN(C(=O)/C=C/C2CCNCC2)C1)C(=O)O [Ex. 6] | 7.8 | 56 | 434 | –
5 | CC(=O)OCC(=O)N[C@H](CNC(=O)[C@@H]1CCCN(C(=O)CCC2CCNCC2)C1)C(=O)O [Ex. 9] | 13 | 55 | 727 | –
6 | N[C@@H](CNC(=O)[C@@H]1CCCN(C(=O)CCC2CCNCC2)C1)C(=O)O [Ex. 10] | 9.2 | 272 | 2510 | –
7 | COc1ccc(CCC(=O)N[C@@H](CNC(=O)[C@@H]2CCCN(C(=O)CCC3CCNCC3)C2)C(=O)O)cc1 [Ex. 11] | 6.5 | 88 | 479 | –
8 | CC(=O)N[C@@H](CNC(=O)[C@H]1CCCN(C(=O)CCC2CCNCC2)C1)C(=O)O [Ex. 12] | 6.5 | 791 | 5160 | –
9 | COc1cc(C(=O)CN(C)C(=O)/C=C/C2CCNCC2)ccc1OCC(=O)O [Ex. 14] | 14 | 291 | 4050 | –
10 | CN(CC(=O)c1ccc(OCC(=O)O)c(OCCF)c1)C(=O)/C=C/C1CCNCC1 [Ex. 15] | 19 | 320 | 6210 | –
11 | [11CH3]N(CC(=O)c1ccc(OCC(=O)O)c(OCC(=O)O)c1)C(=O)/C=C/C1CCNCC1 [Production Ex. 21, 2,2′-[[4-({[^11C]methyl[(2E)-3-(4-piperidinyl)-2-propenoyl]amino}acetyl)-1,2-phenylene]bis(oxy)]diacetic acid trifluoroacetate] | – | – | – | Thrombus/Blood ratio (monkey thrombus model): 24.2 ± 17.9; Thrombus/Muscle ratio (monkey thrombus model): 94.8 ± 65.0; Thrombus/Blood ratio (monkey thrombus model; [1]): approximately 24; Thrombus/Muscle ratio (monkey thrombus model; [1]): approximately 95; Blood accumulation of radioactivity (monkey thrombus model; intravenous 740 MBq, arterial blood): 0.084 ± 0.012 % ID/g/kg; Muscle accumulation of radioactivity (monkey thrombus model; intravenous 740 MBq, thigh muscle): 0.021 ± 0.005 % ID/g/kg; Thrombus accumulation of radioactivity (monkey thrombus model; intravenous 740 MBq, thrombus): 1.902 ± 1.132 % ID/g/kg
12 | CC(C)[C@H](NC(=O)[C@H](CC(=O)O)NC(=O)CCCOc1ccc(C(=N)N)cc1)C(=O)O [Reference Ex. 4, FK633, reference compound] | 13 | 103 | 1320 | –
13 | Echistatin [compound 1, reference compound] | 0.38 | – | – | A Inhibition of platelet aggregation IC50 (active GPIIb/IIIa; human PRP, ADP final concentration 2.5 μM, value printed in μg/ml): 0.36 µg/mL; R Suppression of fibrinogen adhesion IC50 (resting GPIIb/IIIa; PGE1-treated platelets, human fibrinogen coated plates, value printed in μg/ml): 0.14 µg/mL

Continued, in another order:

Row | R/A ratio (active GPIIb/IIIa) | IC50 (active GPIIb/IIIa; ADP final concentration 2.5 μM) [nM] | IC50 (resting GPIIb/IIIa) [nM] | Compound | other results
14 | 15 | 35 | 533 | COc1ccc(CCC(=O)N[C@H](CNC(=O)[C@@H]2CCCN(C(=O)CCC3CCNCC3)C2)C(=O)O)cc1 [Ex. 7] | –
15 | – | 49 | 1520 | CCC(=O)N[C@@H](CNC(=O)[C@@H]1CCCN(C(=O)CCC2CCNCC2)C1)C(=O)O [Ex. 8] | –
16 | 6.1 | 32.4 | 198 | CCCCCCC(=O)N[C@H](CNC(=O)[C@@H]1CCCN(C(=O)CCC2CCNCC2)C1)C(=O)O [Ex. 16] | –
17 | 16 | 29.9 | 486 | COC(=O)COc1ccc(C(=O)N[C@H](CNC(=O)[C@@H]2CCCN(C(=O)CCC3CCNCC3)C2)C(=O)O)cc1 [Ex. 17] | –
18 | 7.9 | 6.1 | 48 | CC(C)CCCOc1ccc(C(=O)N[C@@H](CNC(=O)[C@H]2CCCN(C(=O)CCC3CCNCC3)C2)C(=O)O)cc1 [Ex. 18] | –
19 | 17 | 9.1 | 151 | CC(C)CCC(=O)Nc1cccc(C(=O)N[C@@H](CNC(=O)[C@H]2CCCN(C(=O)CCC3CCNCC3)C2)C(=O)O)c1 [Ex. 19] | –
20 | 8.0 | 30 | 239 | CC(C)CC(=O)Nc1cccc(C(=O)N[C@@H](CNC(=O)[C@H]2CCCN(C(=O)CCC3CCNCC3)C2)C(=O)O)c1 [Ex. 20] | –
21 | 1.8 | 45 | 80 | N=C(N)c1ccc(C(=O)N[C@@H](Cc2ccc(O)cc2)C(=O)N2CCC(OCC(=O)O)CC2)cc1 [Reference Ex. 3, Lamifiban, reference compound] | –
